Experimental findings from publication PMC4601023, “Novel anticancer agent, SQAP, binds to focal adhesion kinase and modulates its activity” (Scientific Reports, 2015) are described below.

In one test the test system is HUVEC cells. Put plainly: In vitro cell migration assay (Oris kit), HUVEC. It is filed as cell-based, human. The following applies: 96 well cell migration kit. The procedure: Figure 6 SQAP inhibits cell migration in vitro. (A) HUVEC cells were seeded and grown to 100% confluence in 60-mm diameter dishes. After generating a single scratch in the monolayer, the cells were cultured for 11 h in medium containing 1% FBS and VEGF (50 ng/mL) in the presence or absence of SQAP. Photographs were taken immediately after 11 h. (B) The change in wound width was measured as described in the Materials and Methods. (C) A549 cells were seeded and grown to 100% confluence in 60-mm diameter dishes. After generating a single scratch in the monolayer, the cells cultured for the 25 h in media containing 1% FBS and fibronectin (10 μg/ml) treated with SQAP or vehicle. Photographs were collected immediately after wounding and after 25 h. (D) The change in wound width was measured as described in the Materials and Methods. Cell migration was additionally examined in 96 well plates. HUVEC (E) and A549 cells (F) were seeded and grown into confluence overnight. […] The fluorescent emission signal was obtained with a plate reader. […]
Wound healing was additionally assessed in HUVEC or A549 cells using a cell migration kit (Oris, Madison, WI, USA) as described by the manufacturer. […] The fluorescence emission signal in the migration zones was measured on a Wallac Arvo 5x microplate reader (Perkin Elmer, Waltham, MA, USA).

For the next test, the target named is T1, MFE-2 (598–736) (Homo sapiens, UniProt P51659).
T1 construct: For MFE-2 (598–736) DNA was amplified; made in house; host or cells: E. coli Rosetta 2 (DE3) pLysS
Put plainly: SPR analysis, immobilized His-tagged MFE-2 (598-736). It counts as binding. The following applies: Biacore 3000, CM5 chip, 25 °C, read-out: dissociation constant (KD) for MFE-2. The source says: (§1) SPR was utilized as an independent confirmation of the kinetic parameters between SQAP and the putative binding proteins. […] The recombinant proteins were then expressed in Escherichia coli and purified to homogeneity. In addition, full length, His-tagged ADRM1 and GST-tagged HR23B (GST-HR23B) were also used. The proteins were first immobilized on a CM5 sensor chip of the SPR biosensor (Biacore 3000). For GST-HR23B analysis, a GST protein was additionally immobilized and used as a control in order to eliminate possible nonspecific binding of SQAP. SQAP samples at different concentrations were then injected over the proteins immobilized on the sensor chip. As a negative control we used sulfoquynovosylpropanediol (SQP), which lacks the fatty acid moiety of SQAP (Fig. 1). […]
(§2) The binding kinetics of SCP-2, MFE-2, ADRM1, HR23B and FAK with SQAP and SQP were analyzed on a Biacore 3000 instrument (GE Healthcare, Little Chalfont, UK). […] The buffer of purified peptides was exchanged to HBS-P (150 mM NaCl, 0.005% Surfactant P20, 10 mM HEPES-NaOH pH 7.4) using a PD 10 column (GE Healthcare, Little Chalfont, UK) and the concentrations were quantified using DC protein assay kit (Bio-Rad Laboratories, Hercules, CA, USA). […] Kinetic parameters were determined by analyzing the data using BIAevaluation 4.1 software (GE Healthcare, Little Chalfont, UK).

The subject of test [1] is FAK phosphorylation (Y397, Y925) in A549 cells. Put plainly: FAK phosphorylation level in A549, Western blotting. It is filed as cell-based, human. Particulars: A549, fibronectin 10 μg/mL, 1 h treatment. On the procedure:
A549 cells were incubated in a serum-free medium for 48 h in 60 mm dishes (IWAKI, Tokyo, Japan). Then 10 μM SQAP, SQMG or SQP was added and incubated for 30 min followed by addition of fibronectin 10 μg/mL (Sigma, St. Louis, MI, USA) and incubation for another 30 min. FAK phosphorylation level was analyzed by Western blotting as described in the next section.
Cells were harvested and solubilized in RIPA buffer (20 mM Tris-HCl, pH 7.5, 1% Sodium deoxycholate, 150 mM NaCl, 5 mM EDTA, 1% Triton X-100, 0.1% SDS, 0.1%, 1 mM PMSF, 1 mM vanadate and 1 μg/mL leupeptin). Protein quantification was determined using the DC protein assay kit (Bio-Rad, Hercules, CA, USA). A total of 15 μg of each protein sample were separated by SDS–PAGE gels and blotted onto polyvinylidene difluoride membranes (Merck, Kenilworth, NJ, US). After blocking for 1 h with Blocking-One (Nacalai Tesque, Kyoto, Japan), proteins were detected by incubating the membranes with the primary antibody at 4 °C overnight (anti-Y397 2:2000, anti-Y925 5:2000 and anti-FAK 0.5:2000) followed by incubation with horseradish peroxidase-conjugated secondary antibodies at room temperature for 1 h (anti-mouse 0.5:2000 and anti-rabbit 0.4:2000).
For orientation: Immunoblotting shows a protein as a band on a membrane.

The target in the next test is T2, HR23B (Homo sapiens, UniProt P54727).
T2 construct: ADRM1 and HR23B human full length proteins were purchased; purchased Abnova (Taipei, Taiwan)
Put plainly: SPR analysis, immobilized GST-HR23B (GST control subtracted). The following applies: no kinetic analysis. It counts as binding.
From the text: as §1, §2

T2 sequence (P54727 whole entry): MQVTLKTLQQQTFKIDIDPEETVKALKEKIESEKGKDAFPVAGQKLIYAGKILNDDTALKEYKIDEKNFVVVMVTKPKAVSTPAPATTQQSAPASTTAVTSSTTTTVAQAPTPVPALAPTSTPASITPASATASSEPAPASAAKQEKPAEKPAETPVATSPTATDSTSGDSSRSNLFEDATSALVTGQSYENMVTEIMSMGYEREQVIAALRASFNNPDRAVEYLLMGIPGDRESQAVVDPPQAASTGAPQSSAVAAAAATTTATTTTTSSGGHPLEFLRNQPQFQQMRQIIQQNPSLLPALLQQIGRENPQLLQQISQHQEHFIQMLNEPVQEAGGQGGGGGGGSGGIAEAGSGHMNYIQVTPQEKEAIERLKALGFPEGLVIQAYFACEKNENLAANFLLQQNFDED
T1 sequence (P51659 598-736): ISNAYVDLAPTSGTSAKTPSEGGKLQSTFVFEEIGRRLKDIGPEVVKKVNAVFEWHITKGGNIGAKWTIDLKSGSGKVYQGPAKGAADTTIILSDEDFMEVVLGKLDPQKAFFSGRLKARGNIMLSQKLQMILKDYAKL

By Kd is commonly meant the equilibrium constant for the complex coming apart. In the case of `CCCCCCCCCCCCCCCCCC(=O)OCCCO[C@H]1O[C@H](CS(=O)(=O)O)[C@@H](O)[C@H](O)[C@H]1O` [SQAP, sulfoquynovosylacylpropanediol], the cell migration entry in the test on HUVEC cells is “arrested”. Further, the Kd on MFE-2 (598–736) was 14.2 µM. Besides, the “phosphorylation of FAK at Y397 and Y925” value in test [1] is listed as “could inhibit”. The “binding to HR23B (SPR response)” value on HR23B is “specific binding response of SQAP in a dose-dependent manner”.
